Test results taken from patent publication US11130762B2, “Azaaryl derivative, preparation method therefor, and application thereof for use in pharmacy” (Abbisko Therapeutics Co., Ltd., priority 2017, dated 2021).

Key:
PDGFRA kinase = PDGFRA kinase (Homo sapiens, UniProt P16234); experiment: PDGFRA in vitro biochemical kinase study (Caliper EZ Reader); details: Caliper mobility shift; read-out: Enzymatic experiment PDGFRA IC50
Procedure: B. KIT/PDGFRA In Vitro Biochemical Kinase Study
1. Preparation of 1-Fold Kinase Buffer and Stop Solution
1.2 stop solution: 100 mM HEPES, pH 7.5, 0.015% Brij-35, 0.2% Coating Reagent #3, 50 mM EDTA
2. Preparation of Compound Solution
2.1 Dilution of Compound Solution
1) The final concentration of the compound solution was 40 μM, and the concentration of the prepared stock solution was 50 times of the final concentration, i.e., 2 mM.
2) 80 μL of 100% DMSO was added to the second well of the 96-well plate, then 20 μL of 10 mM compound solution was added, and thereby 2 mM compound solution was prepared, 60 μL of 100% DMSO was added to other wells, 20 μL of compound was taken from the second well, added to the third well and diluted by 4 times. This serial 4-time dilution was conducted in sequence for the total of 10 concentrations.
2.2 5-Fold Compound Solution Transferred to a Reaction Plate
1) 10 μL of solution was taken from each well of the above 96-well plate and added to another 96-well plate, and 90 μL of kinase buffer was added.
2) 5 μL of solution was taken from the above 96-well plate and added to a 384-well reaction plate.
1) KIT/PDGFRA kinase was added to the 1-fold kinase buffer solution to obtain a 2.5-fold kinase solution.
2) FAM-labeled polypeptide and ATP were added to the 1-fold kinase buffer solution to obtain a 2.5-fold substrate solution.
3) 10 μL of 2.5-fold kinase solution was added to the 384-well reaction plate, which already contained 5 μL of 5-fold compound in 10% DMSO. And the mixed solution was incubated at room temperature for 10 min.
4) 10 μL of 2.5-fold substrate solution was added to the 384-well reaction plate.
5) Kinase reaction and termination: the mixed solution was incubated at 28° C. for a certain period of time, and 25 μL of stop solution was added to stop the reaction.
2.4 Data Reading of Caliper EZ Reader II
2.5 Calculation of Percent Inhibition and IC50
1) Percent conversion data were copied from the Caliper EZ Reader. […]

[1] = test system: MV-4-11 human acute monocytic leukemia cells; experiment: Cell proliferation (Cell Titer Glo), MV-4-11 cells (FLT3); assay type: cell-based; details: MV4-11, 72 h, 3 days, CTG, * = average of multiple tests, read-out: Cytological experiment FLT3 IC50
Procedure: (§1) D. CSF-1R-Related Cell Proliferation Experiment
(§2) Functional effects of compounds on the proliferation of several cell lines were evaluated by Cell Titer Glo (CTG) studies in the present invention, and effects of the compounds on the proliferation of different cells were evaluated to determine the selectivity degree of the compounds. In the experiment, M-07e human cytomegalic leukemia cells (cat. No. CBP60791) from Nanjing Kebai Biotechnology Co., Ltd. were cultured in an incubator under conditions of RPMI1640 (Gibco, cat. No. 11875-119), 20% fetal bovine serum (Gibco, 10099-141), human 10 ng/mL GM-CSF granulocyte macrophage colony-stimulating factors (R&D, cat. No. 215-GM-010), 37° C., and 5% CO2; and Kasumi-1 human acute myeloblastic leukemia cells (cat. No. CBP60524) were cultured in an incubator under conditions of RPMI1640 (Gibco, cat. No. 11875-119), 20% fetal bovine serum (Gibco, 10099-141), 37° C., and 5% CO2: NCI-H1703 human non-small cell lung squamous carcinoma cells (cat. No. CBP60115) were cultured in an incubator under conditions of RPMI1640 (Gibco, cat. No. 11875-119), 10% fetal bovine serum (Gibco, 10099-141), 37° C., and 5% CO2; MV-4-11 human acute monocytic leukemia cells (cat. No. CBP60522) were cultured in an incubator under conditions of IMDM (Invitrogen, cat. No. 12440053), 20% fetal bovine serum (Gibco, 10099-141), 37° C., and 5% CO2. Since ATP is an index for viable cell metabolism, CTG (Promega, #G7573) reagent is a homogeneous detection method for detecting the number of viable cells in the culture by quantifying ATP. Therefore, compound-mediated inhibition for cell proliferation/survival was evaluated by quantifying ATP content in cells, and the specific experimental process was as follows.
III) MV-4-11 Human Acute Monocytic Leukemia Cell
1. The cells were inoculated into a tissue-culture-medium-treated 96-well plate (Costar #3904) with 5000 cells/well/90 μL fresh culture medium, and cultured for 24 hrs:
2. the next day, 10 μL of culture medium containing testing compound with 10-fold of final concentration was added to each well;
3. the dosage effect was evaluated by testing 3-fold serial dilutions of the compound, which started from 18 μM;
4. after the cells were incubated for 3 days at 37° C. and 5% CO2, the inhibition on cell survival was quantified after 50 μL of CTG was added and the luminescence assay was performed;
5. the compound concentration leading to half maximal inhibitory (IC50) and the compound concentration leading to absolute half maximal inhibitory (Absolute IC50) were measured by a plate reader (M1000, Tecan) and a four-parameter curve fit in Graphpad Prism 7.

[2] = test system: M-07e human cytomegalic leukemia cells; experiment: Cell proliferation (Cell Titer Glo), M-07e cells with SCF (KIT); assay type: cell-based; details: 72 h, 3 days, CTG, * = average of multiple tests, read-out: Cytological experiment KIT IC50
Procedure: as §1, §2
I) M-07e Human Cytomegalic Leukemia Cell:
1. The cells were plated into a tissue-culture-medium-treated 96-well plate (Costar #3904) with 3500 cells/well/80 μL fresh culture medium, and cultured for 24 hrs;
2. the next day, 10 μL of culture medium containing testing compound with 10-fold of final concentration was added to each well:
3. 10 μL of culture medium containing SCF recombinant human stem cell factor (R&D, cat. No. 7466-SC-010) with 10-fold of the final concentration was then added to each well;
4. the dosage effect was evaluated by testing 4-fold serial dilutions of the compound, which started from 18 μM;
5. after the cells were incubated for 3 days at 37° C. and 5% CO2, the inhibition on cell survival was quantified after 50 μL of CTG was added and the luminescence assay was performed;
6. the compound concentration leading to half maximal inhibitory (IC50) and the compound concentration leading to absolute half maximal inhibitory (Absolute IC50) were measured by a plate reader (M1000, Tecan) and a four-parameter curve fit in Graphpad Prism 7.

PDGFRA kinase, sequence (P16234 24-1089): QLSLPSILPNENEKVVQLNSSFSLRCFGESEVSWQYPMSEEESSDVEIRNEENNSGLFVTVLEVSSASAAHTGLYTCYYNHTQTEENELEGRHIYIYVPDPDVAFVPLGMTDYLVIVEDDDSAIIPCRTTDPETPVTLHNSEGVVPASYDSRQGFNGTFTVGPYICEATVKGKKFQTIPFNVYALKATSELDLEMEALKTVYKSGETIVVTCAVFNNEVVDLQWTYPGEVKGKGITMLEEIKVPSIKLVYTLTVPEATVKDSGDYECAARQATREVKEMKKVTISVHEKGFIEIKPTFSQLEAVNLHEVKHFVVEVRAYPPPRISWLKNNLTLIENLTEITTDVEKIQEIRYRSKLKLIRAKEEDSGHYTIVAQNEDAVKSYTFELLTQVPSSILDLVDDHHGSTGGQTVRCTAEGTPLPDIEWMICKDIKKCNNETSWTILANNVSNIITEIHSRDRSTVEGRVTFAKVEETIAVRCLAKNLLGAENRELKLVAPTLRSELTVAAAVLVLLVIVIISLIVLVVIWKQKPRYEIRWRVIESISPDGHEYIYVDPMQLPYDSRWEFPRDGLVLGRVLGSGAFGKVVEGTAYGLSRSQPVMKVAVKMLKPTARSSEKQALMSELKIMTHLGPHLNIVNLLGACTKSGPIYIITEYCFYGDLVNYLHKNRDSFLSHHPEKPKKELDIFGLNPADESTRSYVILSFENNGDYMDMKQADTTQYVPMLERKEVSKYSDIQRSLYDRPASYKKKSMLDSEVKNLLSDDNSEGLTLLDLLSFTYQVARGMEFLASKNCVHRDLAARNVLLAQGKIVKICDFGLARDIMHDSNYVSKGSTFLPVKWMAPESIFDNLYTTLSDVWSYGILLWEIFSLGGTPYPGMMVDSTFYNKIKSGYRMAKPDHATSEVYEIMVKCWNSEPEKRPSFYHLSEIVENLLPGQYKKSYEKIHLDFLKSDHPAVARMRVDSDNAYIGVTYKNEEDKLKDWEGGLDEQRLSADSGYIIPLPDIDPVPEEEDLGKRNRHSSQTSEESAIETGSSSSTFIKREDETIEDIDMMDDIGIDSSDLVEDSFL

With `Cc1nc(-c2cnc3n(c2=O)CCCN3C)ccc1Oc1ccnc(-c2cnn(C)c2)c1` [Example 1, 9-methyl-3-(6-methyl-5-((2-(1-methyl-1H-pyrazol-4-yl)pyridin-4-yl)oxy)pyridin-2-yl)-6,7,8,9-tetrahydro-4H-pyrimido[1,2-a]pyrimidin-4-one] the IC50 (PDGFRA kinase) was 9310 nM, the IC50 [1] was > 6000 nM and the IC50 [2] was > 2000 nM.
In the case of `CCN1CCCn2c1ncc(-c1ccc(Oc3ccnc(-c4cnn(C)c4)c3)c(C)n1)c2=O` [Example 4], the IC50 (PDGFRA kinase) is reported as 757 nM, the IC50 [1] is reported as 1810 nM and the IC50 [2] is reported as 436 nM.
